# Data taken from patent publication US9511052B2, “Mineralocorticoid receptor antagonists” (Merck Sharp & Dohme Corp., priority 2012, dated 2016).
# Molecular target: T1, full-length human Mineralocorticoid Receptor (MR) (Homo sapiens, UniProt P08235)
# T1 construct: host or cells: PathHunter CHO-K1 MR cells
# T1 sequence (P08235 1-984): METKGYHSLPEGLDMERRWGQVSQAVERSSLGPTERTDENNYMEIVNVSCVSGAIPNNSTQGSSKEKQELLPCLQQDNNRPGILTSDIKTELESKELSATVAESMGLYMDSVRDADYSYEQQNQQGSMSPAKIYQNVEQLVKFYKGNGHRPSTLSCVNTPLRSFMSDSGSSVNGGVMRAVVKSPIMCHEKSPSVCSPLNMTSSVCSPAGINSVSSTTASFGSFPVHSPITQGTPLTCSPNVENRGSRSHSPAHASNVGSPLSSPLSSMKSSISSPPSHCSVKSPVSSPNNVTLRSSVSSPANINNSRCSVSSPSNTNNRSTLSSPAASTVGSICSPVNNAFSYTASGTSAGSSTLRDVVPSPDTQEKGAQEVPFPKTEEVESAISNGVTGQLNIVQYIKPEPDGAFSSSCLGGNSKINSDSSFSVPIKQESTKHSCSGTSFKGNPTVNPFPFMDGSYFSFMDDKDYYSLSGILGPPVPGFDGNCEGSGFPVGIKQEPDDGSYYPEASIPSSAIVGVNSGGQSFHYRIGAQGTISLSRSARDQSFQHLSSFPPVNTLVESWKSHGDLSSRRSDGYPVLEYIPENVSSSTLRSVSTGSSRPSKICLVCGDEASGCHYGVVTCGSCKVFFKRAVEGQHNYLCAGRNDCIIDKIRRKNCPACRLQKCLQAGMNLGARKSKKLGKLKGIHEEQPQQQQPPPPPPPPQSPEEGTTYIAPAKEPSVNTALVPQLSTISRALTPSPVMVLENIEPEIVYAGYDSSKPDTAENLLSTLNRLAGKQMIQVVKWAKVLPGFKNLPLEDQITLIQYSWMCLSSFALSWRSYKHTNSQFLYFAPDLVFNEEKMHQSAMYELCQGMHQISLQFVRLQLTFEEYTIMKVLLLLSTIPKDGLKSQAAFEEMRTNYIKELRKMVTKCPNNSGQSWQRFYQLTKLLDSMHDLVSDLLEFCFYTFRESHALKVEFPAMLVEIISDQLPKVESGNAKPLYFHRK
# Experiment: human MR NH Pro assay (PathHunter Protein:Protein interaction assay), MR antagonism
# Assay type: cell-based
# Conditions: IP = inflection point of the dose-response curve; CHO-K1 cells overexpressing human MR, aldosterone about 0.3 nM to about 1 nM, 6 hours at 37° C.
# Description: The activity of the compounds of the present invention regarding mineralocorticoid receptor antagonism can be evaluated using the following assay.
# Assessment of MR Potency in HMR NH Pro Assay
# The human MR NH Pro assay is a commercially available PathHunter™ Protein:Protein interaction assay (DiscoveRx; http://www.discoverx.com/nhrs/prod-nhrs.php) that measures the ability of compounds to antagonize full-length human Mineralocorticoid Receptor (MR) binding to a coactivator peptide.
# Stock solution was prepared at 10 μM in DMSO and stored at −20° C. for assay, dilute in assay media to 1.8 or 6 nM (6× of final concentration=about 0.3 nM to about 1.0 nM)
# 5. Cell line: PathHunter CHO-K1 MR cells Cat #93-0456C2, Lot No: 09B0913, from operation liquid nitrogen stock.
# 6. Control Antagonist: Spironolactone: Sigma #S-3378 and Eplerenone Sigma #107724-20-9 (10 mM stock concentration also prepared in DMSO and stored at −20° C.).
# 1. Cells are grown in F12+FBS+Hygromycin+pen/strep+Genetin
# 2. Cells are collected with 0.05% trypsin and the cell suspension is spun and resuspended in a volume of F12+1.5% CD-FBS and counted.
# 3. The cells concentration was adjusted to 4×10^5 cells/mL.
# 4. Cells were (25 μL/well) added to the wells of a 384 well plate.
# 5. The plate was then incubated at 37° C. over night in a humidified incubator with 5% CO2.
# 6. Test compounds were titrated starting at 4.4 mM, 10-point titration in 1:3 dilution.
# Protocol for 384 well plate format: 6 hr treatment:
# 1. 10K exponentially growing cells/well (25 μL) were resuspended in assay media and plated into each well using the Multidrop (Thermo Electron) (use white wall, clear bottom assay plates (Costar #3570) and incubated overnight at 37° C., 5% CO2.
# 2. 0.25 μL 120× test compound (final DMSO concentration should be <1%) was added to each well n=2, 10 point titrations starting at 36.7 μM final concentration.
# 4. 5 μL of assay media was added to all wells in column 23 and 24.
# 5. Cells were then incubated for 6 hrs at 37° C., 5% CO2.
# 6. 15 μL 3× DiscoveRx detection reagent was then added to each well.
# 7. Plates were incubated for 1 hour at room temperature in the dark.
# 8. Plates were read on Envision (PerkinElmer) luminesence plate reader and analyzed using ADA.
smiles,measurement,value
"CCC(O)C(CC)(c1ccc(S(F)(F)(F)(F)F)cc1)n1ncc2c(NS(C)(=O)=O)cccc21 (single isomer, unassigned) [Compound 26, N-(1-{4-hydroxy-3-[4-(pentafluoro-λ^6-sulfanyl)phenyl]hexan-3-yl}-1H-indazol-4-yl)methanesulfonamide]",IC50,1.13 µM
"CCC(c1ccc(C(F)(F)F)cc1)(C(C)O)n1ncc2c(NS(C)(=O)=O)cc(F)cc21 (single isomer, unassigned) [Compound 32, N-(6-fluoro-1-(2-hydroxy-3-(4-(trifluoromethyl)phenyl)pentan-3-yl)-1H-indazol-4-yl)methanesulfonamide]",IC50,0.027 µM
"CCC(c1ccc(C(F)(F)F)cc1)(C(C)O)n1ncc2c(NS(C)(=O)=O)cc(F)cc21 (single isomer, unassigned) [Compound 33, N-(6-fluoro-1-(2-hydroxy-3-(4-(trifluoromethyl)phenyl)pentan-3-yl)-1H-indazol-4-yl)methanesulfonamide]",IC50,1.11 µM
"CCC(c1ccc(C(F)(F)F)cc1)(C(C)O)n1ncc2c(NS(C)(=O)=O)cc(F)cc21 (single isomer, unassigned) [Compound 34, N-(6-fluoro-1-(2-hydroxy-3-(4-(trifluoromethyl)phenyl)pentan-3-yl)-1H-indazol-4-yl)methanesulfonamide]",IC50,1.14 µM
"CC(O)C(CC(F)F)(c1ccc(C(F)(F)F)cc1)n1ncc2c(NS(C)(=O)=O)cccc21 (single isomer, unassigned) [Compound 36, N-(1-(1,1-difluoro-4-hydroxy-3-(4-(trifluoromethyl)phenyl)pentan-3-yl)-1H-indazol-4-yl)methanesulfonamide]",IC50,0.095 µM
"CC(O)C(CC(F)F)(c1ccc(C(F)(F)F)cc1)n1ncc2c(NS(C)(=O)=O)cccc21 (single isomer, unassigned) [Compound 38, N-(1-(1,1-difluoro-4-hydroxy-3-(4-(trifluoromethyl)phenyl)pentan-3-yl)-1H-indazol-4-yl)methanesulfonamide]",IC50,0.596 µM
"CCC(O)C(CC(F)F)(c1ccc(C(F)(F)F)cc1)n1ncc2c(NS(C)(=O)=O)cccc21 (single isomer, unassigned) [Compound 39, N-(1-(1,1-difluoro-4-hydroxy-3-(4-(trifluoromethyl)phenyl)hexan-3-yl)-1H-indazol-4-yl)methanesulfonamide]",IC50,0.023 µM
"CCC(O)C(CC(F)F)(c1ccc(C(F)(F)F)cc1)n1ncc2c(NS(C)(=O)=O)cccc21 (single isomer, unassigned) [Compound 40, N-(1-(1,1-difluoro-4-hydroxy-3-(4-(trifluoromethyl)phenyl)hexan-3-yl)-1H-indazol-4-yl)methanesulfonamide]",IC50,0.015 µM
"CCC(O)C(CC(F)F)(c1ccc(C(F)(F)F)cc1)n1ncc2c(NS(C)(=O)=O)cccc21 (single isomer, unassigned) [Compound 41, N-(1-(1,1-difluoro-4-hydroxy-3-(4-(trifluoromethyl)phenyl)hexan-3-yl)-1H-indazol-4-yl)methanesulfonamide]",IC50,0.543 µM
"CCC(O)C(CC(F)F)(c1ccc(C(F)(F)F)cc1)n1ncc2c(NS(C)(=O)=O)cccc21 (single isomer, unassigned) [Compound 42, N-(1-(1,1-difluoro-4-hydroxy-3-(4-(trifluoromethyl)phenyl)hexan-3-yl)-1H-indazol-4-yl)methanesulfonamide]",IC50,1.37 µM
"CS(=O)(=O)Nc1cccc2c1cnn2C(CO)(CC(F)F)c1ccc(C(F)(F)F)cc1 (single isomer, unassigned) [Compound 43, N-(1-(4,4-difluoro-1-hydroxy-2-(4-(trifluoromethyl)phenyl)butan-2-yl)-1H-indazol-4-yl)methanesulfonamide]",IC50,0.388 µM
"CS(=O)(=O)Nc1cccc2c1cnn2C(CO)(CC(F)F)c1ccc(C(F)(F)F)cc1 (single isomer, unassigned) [Compound 44, N-(1-(4,4-difluoro-l-hydroxy-2-(4-(trifluoromethyl)phenyl)butan-2-yl)-1H-indazol-4-yl)methanesulfonamide]",IC50,0.539 µM
"CS(=O)(=O)Nc1cccc2c1cnn2C(CC(F)F)(C(N)=O)c1ccc(C(F)(F)F)cc1 (single isomer, unassigned) [Compound 45, 4,4-difluoro-2-(4-(methylsulfonamido)-1H-indazol-1-yl)-2-(4-(trifluoromethyl)phenyl)butanamide]",IC50,0.274 µM
"CCC(c1ccc(C(F)(F)F)cc1)(C(O)C(F)F)n1ncc2c(NS(C)(=O)=O)cccc21 (single isomer, unassigned) [Compound 48, N-(1-(1,1-difluoro-2-hydroxy-3-(4-(trifluoromethyl)phenyl)pentan-3-yl)-1H-indazol-4-yl)methanesulfonamide]",IC50,0.006 µM
"CCC(c1ccc(C(F)(F)F)cc1)(C(O)C(F)F)n1ncc2c(NS(=O)(=O)CC)cccc21 (single isomer, unassigned) [Compound 49, N-(1-(1,1-difluoro-2-hydroxy-3-(4-(trifluoromethyl)phenyl)pentan-3-yl)-1H-indazol-4-yl)ethanesulfonamide]",IC50,0.007 µM
"CCC(c1ccc(C(F)(F)F)cc1)(C(O)C(F)F)n1ncc2c(NS(=O)(=O)CC)cccc21 (single isomer, unassigned) [Compound 50, N-(1-(1,1-difluoro-2-hydroxy-3-(4-(trifluoromethyl)phenyl)pentan-3-yl)-1H-indazol-4-yl)ethanesulfonamide]",IC50,0.004 µM
"CCC(c1ccc(C(F)(F)F)cc1)(C(O)C(F)F)n1ncc2c(NS(C)(=O)=O)cc(F)cc21 (single isomer, unassigned) [Compound 51, N-(1-(1,1-difluoro-2-hydroxy-3-(4-(trifluoromethyl)phenyl)pentan-3-yl)-6-fluoro-1H-indazol-4-yl) methanesulfonamide]",IC50,0.013 µM
"CCC(c1ccc(C(F)(F)F)cc1)(C(O)C(F)F)n1ncc2c(NS(C)(=O)=O)cc(F)cc21 (single isomer, unassigned) [Compound 52, N-(1-(1,1-difluoro-2-hydroxy-3-(4-(trifluoromethyl)phenyl)pentan-3-yl)-6-fluoro-1H-indazol-4-l) methanesulfonamide]",IC50,0.028 µM
"CCC(c1ccc(C(F)(F)F)cc1)(C(O)C(F)F)n1ncc2c(NS(=O)(=O)CC)cc(F)cc21 (single isomer, unassigned) [Compound 53, N-(1-(1,1-difluoro-2-hydroxy-3-(4-(trifluoromethyl)phenyl)pentan-3-yl)-6-fluoro-1H-indazol-4-yl)ethanesulfonamide]",IC50,0.011 µM
"CCC(c1ccc(C(F)(F)F)cc1)(C(O)C(F)F)n1ncc2c(NS(=O)(=O)CC)cc(F)cc21 (single isomer, unassigned) [Compound 54, N-(1-(1,1-difluoro-2-hydroxy-3-(4-(trifluoromethyl)phenyl)pentan-3-yl)-6-fluoro-1H-indazol-4-l)ethanesulfonamide]",IC50,0.012 µM
"CCC(O)C(CC(F)F)(c1ccc(C(F)(F)F)cc1)n1ncc2c(NS(=O)(=O)CC)cccc21 (single isomer, unassigned) [Compound 55, N-(1-(1,1-difluoro-4-hydroxy-3-(4-(trifluoromethyl)phenyl)hexan-3-yl)-1H-indazol-4-yl)ethanesulfonamide]",IC50,0.018 µM
